Patent publication US9284303B2, “Benzimidazole cannabinoid agonists bearing a substituted heterocyclic group” (priority 2006, dated 2016)
Read-outs that look alike come from different tables or passages of the source.

What was measured:
[1] = target: T1, human CB2 (hCB2) receptor (Homo sapiens, UniProt P34972); experiment: Inhibition of forskolin-activated cAMP production upon activation of hCB2 (HTRF), CHO-K1 cells; format: cell-based; conditions: for ratio CB2 agonism over CB1 agonism: Table C-1, selectivity hCB2 over hCB1; for EC50: forskolin-activated cAMP, pEC50=-log(EC50); for ratio CB2 over CB1 agonism: Table C-3, comparison of art compounds A to E with compounds of the invention
T1 construct: expressed in transfected cells; host or cells: CHO-K1

[2] = target: T2, human CB1 (hCB1) receptor (Homo sapiens, UniProt P21554); experiment: Inhibition of forskolin-activated cAMP production upon activation of hCB1 (HTRF), CHO-K1 cells; format: cell-based; conditions: forskolin-activated cAMP, pEC50=-log(EC50); for EC50: CB1 pEC50, hCB1-CHO-K1 cells; for CB1 pEC50: hCB1-CHO-K1 cells
T2 construct: expressed in transfected cells; host or cells: CHO-K1
In short: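 CHO-K1 cells stably expressing hCB1 (20,000/well) were in HBSS stimulation buffer (1 mM IBMX, 10 mM MgCl2, 0.1% BSA, pH 7.4), with 6 μM forskolin in the compound buffer, 30 min at room temperature in the dark. cAMP was read as HTRF 665/620 ratio, normalized to DMSO and CP55490. Outputs were pEC50 and inhibition at 10 μM relative to CP55490.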

[3] = hCB2-CHO-K1 cells, read-out: CB2 pEC50 (converted)

T1 sequence (P34972 whole entry): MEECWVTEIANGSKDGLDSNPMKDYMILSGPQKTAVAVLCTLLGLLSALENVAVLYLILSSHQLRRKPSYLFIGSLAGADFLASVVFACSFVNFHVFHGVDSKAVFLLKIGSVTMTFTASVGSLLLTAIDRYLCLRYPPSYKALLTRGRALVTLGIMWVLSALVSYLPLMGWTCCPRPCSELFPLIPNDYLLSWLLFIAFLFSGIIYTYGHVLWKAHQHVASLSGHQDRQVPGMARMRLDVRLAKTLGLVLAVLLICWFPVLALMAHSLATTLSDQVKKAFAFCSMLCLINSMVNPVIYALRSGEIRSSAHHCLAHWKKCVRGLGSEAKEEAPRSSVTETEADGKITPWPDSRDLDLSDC
T2 sequence (P21554 whole entry): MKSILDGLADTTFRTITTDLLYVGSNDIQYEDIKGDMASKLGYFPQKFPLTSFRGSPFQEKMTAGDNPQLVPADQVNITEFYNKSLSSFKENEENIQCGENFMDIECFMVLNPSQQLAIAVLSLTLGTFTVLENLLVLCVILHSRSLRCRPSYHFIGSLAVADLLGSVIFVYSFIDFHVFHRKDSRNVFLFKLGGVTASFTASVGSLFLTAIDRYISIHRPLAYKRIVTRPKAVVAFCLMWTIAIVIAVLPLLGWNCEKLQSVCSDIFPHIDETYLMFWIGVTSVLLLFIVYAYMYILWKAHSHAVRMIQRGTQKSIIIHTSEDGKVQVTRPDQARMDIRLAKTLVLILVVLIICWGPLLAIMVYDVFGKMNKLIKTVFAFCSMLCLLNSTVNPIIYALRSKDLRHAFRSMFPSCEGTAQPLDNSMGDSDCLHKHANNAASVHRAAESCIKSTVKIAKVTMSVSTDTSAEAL

| Compound | melting point | ratio CB2 agonism over CB1 agonism [1] | EC50 [1, 3] | EC50 [2] | ratio CB2 agonism over CB1 agonism ([1]; listed as 62) | CB1 pEC50 [2] | ratio CB2 over CB1 agonism [1] | EC50 ([1]; CB2 pEC50, hCB2-CHO-K1 cells) |
| --- | --- | --- | --- | --- | --- | --- | --- | --- |
| CC(=O)c1ccc(S(=O)(=O)c2ccc3c(c2)nc(C(C)(C)C)n3CC2CCOCC2)cn1 [Co. No. 50] | 162 °C | 6457 | 0.692 nM | 4470 nM | – | – | – | – |
| CC(C)(C)c1nc2cc(S(=O)(=O)c3cc(O)ncc3F)ccc2n1CC1CCOCC1 [Co. No. 82] | 291.8 to 294.6 °C | 407 | 3.89 nM | 1580 nM | – | – | – | – |
| COC(C)c1ccc(S(=O)(=O)c2ccc3c(c2)nc(C(C)(C)C)n3CC2CCOCC2)nc1 (centres unmarked) [Co. No. 49] | 140 °C | >2138 | 4.68 nM | > 10000 nM | – | – | – | – |
| CC(C)(C)c1nc2cc(S(=O)(=O)c3ccnc(F)c3)ccc2n1CC1CCS(=O)(=O)CC1 [Co. No. 133] | 220.8 °C | >2512 | 3.98 nM | > 10000 nM | – | – | – | – |
| CC(C)(C)Cc1nc2cc(S(=O)(=O)c3cc[n+]([O-])cc3)ccc2n1CC1CCOCC1 [Co. No. 103] | 259.7 °C | – | 7.08 nM | 2090 nM | – | – | – | – |
| CC(C)(C)c1nc2cc(S(=O)(=O)c3sc(S(C)(=O)=O)cc3Br)ccc2n1CC1CCOCC1 [Co. No. 62] | 200 °C | – | 0.589 nM | 1950 nM | 3299 | – | – | – |
| COC(=O)c1cc(S(=O)(=O)c2ccc3c(c2)nc(C(C)(C)C)n3CC2CCOCC2)c[nH]1 [Co. No. 75] | 231 °C | 2291 | 4.17 nM | 9550 nM | – | – | – | – |
| CC(C)(C)c1nc2cc(S(=O)(=O)c3cc[n+]([O-])cc3Br)ccc2n1CC1CCOCC1 [Co. No. 87] | 205.3 °C | – | 2.14 nM | 2290 nM | – | – | – | – |
| CC(C)(C)c1nc2cc(S(=O)(=O)c3ccc(S(C)(=O)=O)nc3)ccc2n1CC1CCCCC1 [Co. No. 27] | 200 °C | >14125 | 0.708 nM | > 10000 nM | – | – | – | – |
| CC(C)(C)c1nc2cc(S(=O)(=O)c3ccc(C#N)o3)ccc2n1CC1CCOCC1 [Co. No. 60] | 145.5 to 145.7 °C | 638 | 1.05 nM | 661 nM | – | – | – | – |
| CC(=O)N1CCC(Cn2c(C(C)(C)C)nc3cc(S(=O)(=O)c4ccc(C#N)s4)ccc32)CC1 [Co. No. 159] | 181.2 °C | >4677 | 2.14 nM | > 10000 nM | – | – | – | – |
| COCCCNc1cc(S(=O)(=O)c2ccc3c(c2)nc(C(C)(C)C)n3CC2CCOCC2)ccn1 [Co. No. 126] | 148.3 °C | 1129 | 0.851 nM | – | – | 6.02 | – | – |
| CC(C)(C)CCn1c(C(C)(C)C)nc2cc(S(=O)(=O)c3ccnc(F)c3)ccc21 [Co. No. 120] | 131.5 °C | >4365 | 2.29 nM | > 10000 nM | – | – | – | – |
| CC(C)(C)c1nc2cc(S(=O)(=O)c3ccnc(C(N)=O)c3)ccc2n1CC1CCOCC1 [Co. No. 16] | 247.1 °C | 359 | 2.34 nM | 851 nM | – | – | – | – |
| CC(C)(C)c1nc2cc(S(=O)(=O)c3ccc(S(C)(=O)=O)cn3)ccc2n1CC1CCOCC1 [Co. No. 67] | 183 °C | >2344 | 4.27 nM | > 10000 nM | – | – | – | – |
| CC(=O)N1CCC(Cn2c(C(C)(C)C)nc3cc(S(=O)(=O)c4cnn(C)c4)ccc32)CC1 [Co. No. 168] | 166.2 °C | >1230 | 8.13 nM | > 10000 nM | – | – | – | – |
| CC(C)(C)c1nc2cc(S(=O)(=O)c3ccnc(F)c3)ccc2n1CCC1CCOCC1 [Co. No. 128] | 177.8 °C | >4786 | 2.09 nM | > 10000 nM | – | – | – | – |
| COCCCc1cc(S(=O)(=O)c2ccc3c(c2)nc(C(C)(C)C)n3CC2CCOCC2)ccn1 [Co. No. 154] | 143.4 °C | >9016 | 1.12 nM | > 10000 nM | – | – | – | – |
| CC(=O)c1ccc(S(=O)(=O)c2ccc3c(c2)nc(C(C)(C)C)n3CC2CCOCC2)nc1 [Co. No. 4] | > 120 °C | 1679 | 1.91 nM | 3240 nM | – | – | 1679 | – |
| CC(C)(C)c1nc2cc(S(=O)(=O)c3ccnc(F)c3)ccc2n1CCN1CCCC1 [Co. No. 144] | 115.5 °C | >3090 | 3.24 nM | > 10000 nM | – | – | – | – |

| Compound | melting point | ratio CB2 agonism over CB1 agonism [1] | EC50 [1, 3] | EC50 [2] | ratio CB2 agonism over CB1 agonism ([1]; listed as 62) | CB1 pEC50 [2] | ratio CB2 over CB1 agonism [1] | EC50 ([1]; CB2 pEC50, hCB2-CHO-K1 cells) |
| --- | --- | --- | --- | --- | --- | --- | --- | --- |
| CC(C)(C)Cn1c(C(C)(C)C)nc2cc(S(=O)(=O)c3ccnc(F)c3)ccc21 [Co. No. 127] | 135.4 °C | 6026 | – | > 10000 nM | – | – | – | 1.66 nM |
| CC(C)(C)c1nc2cc(S(=O)(=O)c3ccc(C(N)=O)s3)ccc2n1CC1CCOCC1 [Co. No. 73] | 209.4 °C | 84 | 1.38 nM | 117 nM | – | – | – | – |
| Cn1nc(S(=O)(=O)c2ccc3c(c2)nc(C(C)(C)C)n3CC2CCOCC2)ccc1=O [Co. No. 100] | 224.3 °C | 631 | 1.58 nM | 1000 nM | – | – | – | – |
| Cc1oc(S(=O)(=O)c2ccc3c(c2)nc(C(C)(C)C)n3CC2CCOCC2)cc1S(C)(=O)=O [Co. No. 68] | 204 to 205 °C | 116 | 3.09 nM | 363 nM | – | – | – | – |
| CC(C)(C)c1nc2cc([S+]([O-])c3c(Cl)cncc3Cl)ccc2n1CC1CCOCC1 (centres unmarked) [Co. No. 85] | 192.9 °C | 891 | 0.933 nM | 832 nM | – | – | – | – |
| CC(C)(C)c1nc2cc(S(=O)(=O)c3ccc(S(C)(=O)=O)o3)ccc2n1CC1CCOCC1 [Co. No. 20] | 165.2 °C | 347 | 1.26 nM | 437 nM | – | – | 346 | – |
| CC(C)(C)c1nc2cc(S(=O)(=O)c3ccc(O)nc3)ccc2n1CC1CCOCC1 [Co. No. 1] | 251 °C | >1995 | 5.01 nM | > 10000 nM | – | – | 1995 | – |
| CC(C)(C)c1nc2cc(S(=O)(=O)c3cc(Cl)cc(Cl)n3)ccc2n1CC1CCOCC1 [Co. No. 10] | 137.43 °C | 12883 | 0.741 nM | 9550 nM | – | – | 12883 | – |
| CC(C)(C)c1nc2cc(S(=O)(=O)c3ccn(CC(F)(F)F)c(=O)c3)ccc2n1CC1CCOCC1 [Co. No. 97] | 152.9 °C | 2065 | 1.86 nM | 3890 nM | – | – | – | – |
| COCCOc1cc(S(=O)(=O)c2ccc3c(c2)nc(C(C)(C)C)n3CC2CCOCC2)ccn1 [Co. No. 150] | 142.9 °C | 638 | 1.26 nM | – | – | 6.09 | – | – |
| CC(C)(C)c1nc2cc(S(=O)(=O)c3ccc(S(C)(=O)=O)nc3)ccc2n1CC1CCOCC1 [Co. No. 56] | 150 to 160 °C | >3802 | 2.63 nM | > 10000 nM | – | – | – | – |
| CC(=O)Nc1cc(S(=O)(=O)c2ccc3c(c2)nc(C(C)(C)C)n3CC2CCOCC2)cc[n+]1[O-] [Co. No. 96] | 247.2 °C | – | 2 nM | > 10000 nM | – | – | – | – |
| CC(C)(C)c1nc2cc(S(=O)(=O)c3ccc(S(=O)(=O)N4CCOCC4)s3)ccc2n1CC1CCOCC1 [Co. No. 7] | 198 °C | >5495 | 1.82 nM | > 10000 nM | – | – | – | – |
| CC(C)(C)c1nc2cc(S(=O)(=O)c3coc(C4OCCO4)c3)ccc2n1CC1CCOCC1 [Co. No. 55] | 141 °C | 363 | 2.29 nM | 832 nM | – | – | – | – |
| CC(C)(C)c1nc2cc(S(=O)(=O)c3cncc(C#N)c3)ccc2n1CC1CCCCC1 [Co. No. 36] | 215 to 216 °C | 108 | 0.676 nM | 72.4 nM | – | – | – | – |
| Cc1cc(S(=O)(=O)c2ccc3c(c2)nc(CC(C)(C)C)n3CC2CCOCC2)ccn1 [Co. No. 24] | 207.1 °C | 407 | 2.19 nM | 891 nM | – | – | 407 | – |
| CC(C)(C)c1nc2cc(S(=O)(=O)c3ccc(C(=O)N4CCOCC4)s3)ccc2n1CC1CCOCC1 [Co. No. 79] | 184.6 °C | 543 | 2.95 nM | 1580 nM | – | – | – | – |
| CC(C)(C)c1nc2cc(S(=O)(=O)c3coc(C(F)(F)F)c3)ccc2n1CC1CCOCC1 [Co. No. 106] | 168 to 169.5 °C | 432 | 0.724 nM | 316 nM | – | – | – | – |
| CC(=O)NCc1ccc(S(=O)(=O)c2ccc3c(c2)nc(C(C)(C)C)n3CC2CCOCC2)cn1 [Co. No. 117] | 199.4 °C | 219 | 4.47 nM | 977 nM | – | – | – | – |
